Experimental data taken from US20250249060A1, “APPLICATION METHOD OF ACTIVE PORTION OF LIGUSTICUM CHUANXIONG IN PREPARATION OF ANTI-GOUT DRUG” (Shaanxi University of Chinese Medicine, priority 2024, published 2025).

Tests used:
[1] = biological target: xanthine oxidase (XOD, or XO) (Homo sapiens, UniProt P47989); assay: Inhibitory effect of extracts/liquid-liquid extracts on XOD activity in vitro (96-well plate, absorbance at 295 nm); format: biochemical; details: tested samples as 1 mg/mL solution, allopurinol positive control 2 mg in 1 mL DMSO + 8 mL PBS
Experimental: 2.1 Buffer solution preparation: 0.4780 g of potassium phosphate monobasic (KH2PO4), 3.473 g of dipotassium hydrogen phosphate trihydrate (K2HPO4·3H2O) and 10.00 milligrams (mg) of ethylenediaminetetraacetic acid disodium salt (EDTA-2Na) are accurately weighed, and then placed in a 250 mL volumetric flask, and diluted to volume with distilled water to obtain the buffer solution. 2.2 Substrate preparation: 3.65 mg of xanthine is accurately weighed, and then added into the buffer solution to dilute to volume of 50 mL, and the xanthine is dissolved with ultrasound to obtain the substrate. 2.3 Enzyme solution preparation: XOD (5 units abbreviated as U) is taken and diluted with 50 mL of the buffer solution to obtain a diluted solution, and the diluted solution is subpackaged in sample bottles to obtain the enzyme solution, and kept in a temperature of −70 Celsius degree (° C.) for later use. […] After that the solution is filtered with a microporous filter membrane to obtain the samples to be tested for later use. 2.6 XOD activity determination: […] […] 2.8 A half maximal inhibitory concentration (IC50) value measurement: the active portion is prepared into 7 series concentrations to explore a dose-effect relationship based on results of the activity test, and IC50 value of the active portion is calculated through a GraphPad prism 8 software.

hyperuricemia mice = assay: Serum uric acid level in hyperuricemia mice; format: in vivo; details: gavage 7 days
serum XOD = biological target: T1, serum XOD (Rattus norvegicus, UniProt P22985); assay: Serum XOD activity in hyperuricemia rats; format: in vivo; details: model group 30 U/L
T1 construct: The activity of the serum XOD of hyperuricemia in rats is measured by using the colorimetry; from tissue; host or cells: serum of hyperuricemia rats

[2] = test system: acute gouty arthritis mice; assay: Paw swelling degree in MSU-induced acute gouty arthritis mice; format: in vivo
Experimental: Livers of the mice are taken and kept in a temperature of −80° C. for later use. The normal control group of mice is injected with 0.1 mL of physiological saline onto right foot pad of the mice after 1 h gavage on the 7th day. […] 0 h, 4 h, 8 h, 12 h and 24 h after the MSU crystal suspension injection, paw volumes of the mice are measured by using the paw volume measuring instrument, the paw swelling degrees of the mice are calculated, and the calculation formula is as follows: [formula] • where Ct represents a paw volume at different time points after injection, and Co represents a paw volume at 0 h after injection.

[3] = Body weight gain of mice before and after treatment; details: allopurinol 40 mg/kg·d, colchicine 1 mg/kg·d, extract 500 mg/kg·d

Chain of xanthine oxidase (XOD, or XO) (P47989 whole entry, species assumed): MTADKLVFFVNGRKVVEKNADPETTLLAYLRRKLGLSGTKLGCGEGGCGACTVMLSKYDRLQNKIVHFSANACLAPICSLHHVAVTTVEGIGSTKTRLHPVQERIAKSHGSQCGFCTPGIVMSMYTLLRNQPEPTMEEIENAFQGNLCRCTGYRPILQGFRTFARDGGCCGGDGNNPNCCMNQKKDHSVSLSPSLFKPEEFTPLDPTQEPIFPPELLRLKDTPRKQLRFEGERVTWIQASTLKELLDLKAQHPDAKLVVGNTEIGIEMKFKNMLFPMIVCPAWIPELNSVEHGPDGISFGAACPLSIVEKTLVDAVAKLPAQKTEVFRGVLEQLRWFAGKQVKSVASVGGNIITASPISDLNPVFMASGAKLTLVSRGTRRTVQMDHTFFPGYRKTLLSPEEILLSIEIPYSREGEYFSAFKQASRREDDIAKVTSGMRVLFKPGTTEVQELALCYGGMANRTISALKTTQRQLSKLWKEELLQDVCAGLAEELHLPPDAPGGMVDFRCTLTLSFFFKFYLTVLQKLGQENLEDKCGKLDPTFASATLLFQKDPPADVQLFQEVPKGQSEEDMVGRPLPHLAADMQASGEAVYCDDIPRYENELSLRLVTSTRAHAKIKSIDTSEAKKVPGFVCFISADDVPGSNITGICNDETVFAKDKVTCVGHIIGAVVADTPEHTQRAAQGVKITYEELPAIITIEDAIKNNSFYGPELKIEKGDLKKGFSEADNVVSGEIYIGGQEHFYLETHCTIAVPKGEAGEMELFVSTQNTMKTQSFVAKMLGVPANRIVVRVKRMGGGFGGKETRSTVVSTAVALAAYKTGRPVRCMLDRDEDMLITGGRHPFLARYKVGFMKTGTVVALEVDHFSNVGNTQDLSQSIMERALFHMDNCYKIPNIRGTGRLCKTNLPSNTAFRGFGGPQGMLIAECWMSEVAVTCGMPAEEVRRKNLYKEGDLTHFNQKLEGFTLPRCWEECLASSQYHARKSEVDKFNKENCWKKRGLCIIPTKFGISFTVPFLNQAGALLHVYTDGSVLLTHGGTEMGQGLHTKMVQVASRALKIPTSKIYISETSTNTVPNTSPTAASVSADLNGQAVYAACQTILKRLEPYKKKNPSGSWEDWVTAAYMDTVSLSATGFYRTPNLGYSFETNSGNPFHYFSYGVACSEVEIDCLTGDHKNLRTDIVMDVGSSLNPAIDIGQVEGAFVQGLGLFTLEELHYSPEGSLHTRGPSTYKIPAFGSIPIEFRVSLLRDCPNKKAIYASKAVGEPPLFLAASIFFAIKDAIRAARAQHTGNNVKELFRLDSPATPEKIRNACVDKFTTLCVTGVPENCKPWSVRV
T1 sequence (P22985 whole entry): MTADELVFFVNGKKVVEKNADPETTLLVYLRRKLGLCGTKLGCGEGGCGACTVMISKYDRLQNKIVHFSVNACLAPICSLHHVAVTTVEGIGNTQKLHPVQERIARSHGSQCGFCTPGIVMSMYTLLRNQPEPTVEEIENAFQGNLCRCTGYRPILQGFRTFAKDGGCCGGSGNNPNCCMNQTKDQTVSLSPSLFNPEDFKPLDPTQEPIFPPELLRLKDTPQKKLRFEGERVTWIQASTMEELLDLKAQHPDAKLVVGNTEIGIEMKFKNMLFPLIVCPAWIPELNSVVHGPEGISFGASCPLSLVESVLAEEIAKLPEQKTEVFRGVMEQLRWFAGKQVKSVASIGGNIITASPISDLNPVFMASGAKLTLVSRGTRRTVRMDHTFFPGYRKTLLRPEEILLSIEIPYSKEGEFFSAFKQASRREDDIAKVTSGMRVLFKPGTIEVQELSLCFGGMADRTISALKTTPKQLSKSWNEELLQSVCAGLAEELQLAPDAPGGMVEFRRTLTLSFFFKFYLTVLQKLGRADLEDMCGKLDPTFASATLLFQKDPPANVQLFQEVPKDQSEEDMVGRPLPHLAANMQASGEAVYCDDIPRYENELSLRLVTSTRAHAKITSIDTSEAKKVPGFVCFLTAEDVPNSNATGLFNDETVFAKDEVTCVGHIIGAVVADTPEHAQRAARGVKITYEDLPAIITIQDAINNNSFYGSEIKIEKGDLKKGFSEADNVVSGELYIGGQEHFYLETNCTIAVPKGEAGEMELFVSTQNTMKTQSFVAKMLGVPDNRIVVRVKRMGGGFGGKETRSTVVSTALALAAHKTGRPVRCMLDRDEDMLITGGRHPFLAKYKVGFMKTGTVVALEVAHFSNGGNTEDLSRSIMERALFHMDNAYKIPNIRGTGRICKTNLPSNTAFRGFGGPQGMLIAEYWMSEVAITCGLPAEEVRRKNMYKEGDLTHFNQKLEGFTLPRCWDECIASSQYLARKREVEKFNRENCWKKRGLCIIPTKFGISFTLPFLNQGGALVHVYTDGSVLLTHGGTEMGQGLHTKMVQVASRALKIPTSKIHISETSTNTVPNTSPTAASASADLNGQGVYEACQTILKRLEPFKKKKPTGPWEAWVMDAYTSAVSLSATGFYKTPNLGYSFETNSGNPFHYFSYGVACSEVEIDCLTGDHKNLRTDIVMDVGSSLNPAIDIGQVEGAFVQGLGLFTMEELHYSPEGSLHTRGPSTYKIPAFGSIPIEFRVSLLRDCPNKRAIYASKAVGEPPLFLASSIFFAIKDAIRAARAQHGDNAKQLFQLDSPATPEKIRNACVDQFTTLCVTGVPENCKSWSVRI

SMILES | inhibition rate on activity of the XOD [1] [%] | decrease of serum uric acid level compared to the model group (hyperuricemia mice) [%] | serum uric acid level (hyperuricemia mice; model 286.82 μmol/L) [µmol/L] | serum XOD activity compared to the model group (serum XOD) | decrease of paw swelling degree compared with the model group ([2]; 24 h after MSU injection) [%] | decrease of paw swelling degree compared with the model group ([2]; at 4 h, 8 h, 12 h and 24 h) | weight gain compared to the normal control group [3]
Oc1ncnc2[nH]ncc12 [allopurinol] | 96.78 | 75.16 | 68.72 | significantly decreases | – | – | –
COc1cc2c(c(OC)c1OC)-c1ccc(OC)c(=O)cc1[C@@H](NC(C)=O)CC2 [colchicine] | – | – | – | – | 15.32 | more than 9% | significantly lower
